Values joined by “and” are separate entries in the source; they are usually repeats but may differ in a detail not shown here. Identical values can stand only once. Like-named read-outs stand apart in the source and are kept apart here.
How the values were obtained:
[1] = molecular target: T1, E1p-ec (Escherichia coli, UniProt P0AFG8)
[2] = molecular target: T2, DXPS (Escherichia coli, UniProt P77488); details: apo-DXPS with 0.15 mM cofactor, 5 °C, 15 h
Target sequence in this assay (P77488 whole entry): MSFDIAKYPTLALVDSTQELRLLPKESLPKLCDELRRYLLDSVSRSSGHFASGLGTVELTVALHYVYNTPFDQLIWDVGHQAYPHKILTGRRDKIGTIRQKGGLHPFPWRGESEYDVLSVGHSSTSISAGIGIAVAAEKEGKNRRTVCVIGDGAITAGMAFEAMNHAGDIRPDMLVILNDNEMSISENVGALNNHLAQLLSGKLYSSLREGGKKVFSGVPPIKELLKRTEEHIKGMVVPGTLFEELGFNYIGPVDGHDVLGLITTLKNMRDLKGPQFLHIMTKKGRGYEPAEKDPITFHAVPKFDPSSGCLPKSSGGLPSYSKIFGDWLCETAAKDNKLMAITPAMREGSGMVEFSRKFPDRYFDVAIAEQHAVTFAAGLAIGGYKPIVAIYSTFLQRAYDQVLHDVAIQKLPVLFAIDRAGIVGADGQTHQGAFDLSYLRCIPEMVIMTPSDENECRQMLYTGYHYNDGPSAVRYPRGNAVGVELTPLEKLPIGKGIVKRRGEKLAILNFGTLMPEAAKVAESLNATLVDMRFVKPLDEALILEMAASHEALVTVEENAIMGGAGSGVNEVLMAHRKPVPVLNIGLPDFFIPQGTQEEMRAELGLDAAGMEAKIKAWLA

[3] = molecular target: T2, DXPS
Target sequence in this assay (P77488 whole entry): as above

[4] = molecular target: T2, DXPS; details: apo-DXPS with 0.10 mM cofactor
Target sequence in this assay (P77488 2-620): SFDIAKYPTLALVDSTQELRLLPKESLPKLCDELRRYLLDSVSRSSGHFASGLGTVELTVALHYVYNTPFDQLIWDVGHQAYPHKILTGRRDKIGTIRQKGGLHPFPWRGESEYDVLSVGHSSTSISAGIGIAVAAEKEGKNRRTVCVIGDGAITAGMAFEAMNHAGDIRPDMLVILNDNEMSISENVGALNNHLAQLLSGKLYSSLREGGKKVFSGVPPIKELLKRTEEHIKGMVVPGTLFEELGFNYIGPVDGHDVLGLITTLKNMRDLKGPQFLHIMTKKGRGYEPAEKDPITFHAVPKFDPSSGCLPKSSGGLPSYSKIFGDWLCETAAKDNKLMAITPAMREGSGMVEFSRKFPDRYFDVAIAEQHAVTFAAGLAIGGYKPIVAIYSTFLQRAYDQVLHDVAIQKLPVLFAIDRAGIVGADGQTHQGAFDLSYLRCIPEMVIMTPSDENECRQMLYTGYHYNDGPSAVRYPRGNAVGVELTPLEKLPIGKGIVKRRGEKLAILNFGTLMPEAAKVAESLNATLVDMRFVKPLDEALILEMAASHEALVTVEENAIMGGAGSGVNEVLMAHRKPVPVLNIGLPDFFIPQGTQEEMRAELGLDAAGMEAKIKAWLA

[5] = molecular target: T3, E1p-h (Homo sapiens, UniProt P08559+P11177); assay: Quenching of intrinsic fluorescence of E1p-h; assay type: binding
T3 sequence (P08559 30-390): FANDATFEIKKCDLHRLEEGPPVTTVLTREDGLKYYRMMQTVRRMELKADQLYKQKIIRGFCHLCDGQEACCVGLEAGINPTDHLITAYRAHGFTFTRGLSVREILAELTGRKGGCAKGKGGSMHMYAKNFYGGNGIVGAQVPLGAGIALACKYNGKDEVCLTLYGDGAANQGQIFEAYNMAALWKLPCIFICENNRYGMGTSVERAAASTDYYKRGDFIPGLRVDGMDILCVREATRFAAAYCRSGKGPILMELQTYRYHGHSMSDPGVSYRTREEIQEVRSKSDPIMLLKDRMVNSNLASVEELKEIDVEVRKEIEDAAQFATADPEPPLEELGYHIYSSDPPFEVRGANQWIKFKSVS
T3 sequence (P11177 31-359): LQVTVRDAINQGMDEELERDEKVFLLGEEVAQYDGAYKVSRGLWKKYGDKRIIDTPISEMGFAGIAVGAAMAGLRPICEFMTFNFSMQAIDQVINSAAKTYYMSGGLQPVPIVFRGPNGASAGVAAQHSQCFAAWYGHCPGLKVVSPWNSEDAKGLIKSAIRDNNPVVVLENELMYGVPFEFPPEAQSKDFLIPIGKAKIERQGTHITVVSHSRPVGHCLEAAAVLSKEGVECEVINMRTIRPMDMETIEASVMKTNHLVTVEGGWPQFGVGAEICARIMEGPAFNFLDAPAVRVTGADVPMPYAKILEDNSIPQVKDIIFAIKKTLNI

[6] = molecular target: T3, E1p-h; assay: E1p-h specific activity by rate of reduction of DCPIP; assay type: biochemical; details: for E1p-h specific activity, percent of that with ThDP: cofactor 0.2 or 0.5 mM
[7] = molecular target: T4, OGDHc-h (Homo sapiens, UniProt Q02218); assay: Overall OGDHc-h activity by formation of NADH; assay type: biochemical
T4 sequence (Q02218 41-1023): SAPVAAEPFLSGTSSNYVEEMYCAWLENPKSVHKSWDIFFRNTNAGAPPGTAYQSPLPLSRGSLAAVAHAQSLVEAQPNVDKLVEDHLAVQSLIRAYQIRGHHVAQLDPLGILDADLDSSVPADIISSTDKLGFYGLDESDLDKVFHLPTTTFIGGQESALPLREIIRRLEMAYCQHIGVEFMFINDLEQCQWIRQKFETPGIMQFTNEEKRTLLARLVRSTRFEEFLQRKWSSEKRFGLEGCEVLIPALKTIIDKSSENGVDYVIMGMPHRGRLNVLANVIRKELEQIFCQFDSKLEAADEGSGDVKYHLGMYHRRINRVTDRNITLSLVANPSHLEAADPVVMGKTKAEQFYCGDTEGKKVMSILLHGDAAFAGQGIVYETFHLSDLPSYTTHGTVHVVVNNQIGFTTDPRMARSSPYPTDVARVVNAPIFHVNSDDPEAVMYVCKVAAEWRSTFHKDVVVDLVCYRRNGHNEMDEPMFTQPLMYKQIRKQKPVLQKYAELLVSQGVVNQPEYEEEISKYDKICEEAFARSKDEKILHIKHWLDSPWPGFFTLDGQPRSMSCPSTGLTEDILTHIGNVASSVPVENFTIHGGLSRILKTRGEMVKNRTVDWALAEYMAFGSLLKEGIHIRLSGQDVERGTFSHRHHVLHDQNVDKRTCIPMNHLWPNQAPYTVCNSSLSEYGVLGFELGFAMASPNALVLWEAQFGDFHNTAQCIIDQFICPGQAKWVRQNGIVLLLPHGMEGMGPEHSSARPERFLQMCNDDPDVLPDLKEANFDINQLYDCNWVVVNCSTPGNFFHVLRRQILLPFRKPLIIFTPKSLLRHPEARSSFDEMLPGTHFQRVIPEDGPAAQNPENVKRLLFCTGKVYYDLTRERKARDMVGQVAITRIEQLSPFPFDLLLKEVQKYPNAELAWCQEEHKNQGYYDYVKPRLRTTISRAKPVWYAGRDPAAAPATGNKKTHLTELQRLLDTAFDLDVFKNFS
T4 sequence (P36957 68-453 partner): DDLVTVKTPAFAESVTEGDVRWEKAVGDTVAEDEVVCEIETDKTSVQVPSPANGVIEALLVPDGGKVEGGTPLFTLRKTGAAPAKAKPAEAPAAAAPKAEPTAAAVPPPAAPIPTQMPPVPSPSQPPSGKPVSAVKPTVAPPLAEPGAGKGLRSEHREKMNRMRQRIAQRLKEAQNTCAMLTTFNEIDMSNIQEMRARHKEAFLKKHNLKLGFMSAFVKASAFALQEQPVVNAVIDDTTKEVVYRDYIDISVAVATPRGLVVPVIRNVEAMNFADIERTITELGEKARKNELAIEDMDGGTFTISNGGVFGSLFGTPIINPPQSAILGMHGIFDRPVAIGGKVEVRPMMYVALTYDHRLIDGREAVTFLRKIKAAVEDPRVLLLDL
T4 sequence (P09622 36-509 partner): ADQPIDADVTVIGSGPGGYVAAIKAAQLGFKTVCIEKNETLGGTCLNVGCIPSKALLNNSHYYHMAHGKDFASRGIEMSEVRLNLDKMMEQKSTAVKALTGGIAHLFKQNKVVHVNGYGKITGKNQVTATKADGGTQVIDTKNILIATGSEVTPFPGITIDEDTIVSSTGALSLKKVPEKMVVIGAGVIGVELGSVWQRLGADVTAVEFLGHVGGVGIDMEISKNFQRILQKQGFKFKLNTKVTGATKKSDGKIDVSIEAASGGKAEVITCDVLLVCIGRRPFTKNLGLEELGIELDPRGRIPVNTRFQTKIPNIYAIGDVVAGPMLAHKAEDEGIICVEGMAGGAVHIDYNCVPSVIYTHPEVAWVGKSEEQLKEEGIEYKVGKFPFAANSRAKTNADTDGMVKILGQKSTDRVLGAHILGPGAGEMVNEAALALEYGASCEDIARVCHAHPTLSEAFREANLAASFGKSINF

[8] = molecular target: T3, E1p-h; assay: MS reductive acetylation of the E2p-h lipoyl domain; assay type: biochemical; details: E1p-h with cofactor and pyruvate
[9] = molecular target: T1, E1p-ec; details: cofactor 0.2 mM

T1 sequence (P0AFG8 2-887 limits assumed): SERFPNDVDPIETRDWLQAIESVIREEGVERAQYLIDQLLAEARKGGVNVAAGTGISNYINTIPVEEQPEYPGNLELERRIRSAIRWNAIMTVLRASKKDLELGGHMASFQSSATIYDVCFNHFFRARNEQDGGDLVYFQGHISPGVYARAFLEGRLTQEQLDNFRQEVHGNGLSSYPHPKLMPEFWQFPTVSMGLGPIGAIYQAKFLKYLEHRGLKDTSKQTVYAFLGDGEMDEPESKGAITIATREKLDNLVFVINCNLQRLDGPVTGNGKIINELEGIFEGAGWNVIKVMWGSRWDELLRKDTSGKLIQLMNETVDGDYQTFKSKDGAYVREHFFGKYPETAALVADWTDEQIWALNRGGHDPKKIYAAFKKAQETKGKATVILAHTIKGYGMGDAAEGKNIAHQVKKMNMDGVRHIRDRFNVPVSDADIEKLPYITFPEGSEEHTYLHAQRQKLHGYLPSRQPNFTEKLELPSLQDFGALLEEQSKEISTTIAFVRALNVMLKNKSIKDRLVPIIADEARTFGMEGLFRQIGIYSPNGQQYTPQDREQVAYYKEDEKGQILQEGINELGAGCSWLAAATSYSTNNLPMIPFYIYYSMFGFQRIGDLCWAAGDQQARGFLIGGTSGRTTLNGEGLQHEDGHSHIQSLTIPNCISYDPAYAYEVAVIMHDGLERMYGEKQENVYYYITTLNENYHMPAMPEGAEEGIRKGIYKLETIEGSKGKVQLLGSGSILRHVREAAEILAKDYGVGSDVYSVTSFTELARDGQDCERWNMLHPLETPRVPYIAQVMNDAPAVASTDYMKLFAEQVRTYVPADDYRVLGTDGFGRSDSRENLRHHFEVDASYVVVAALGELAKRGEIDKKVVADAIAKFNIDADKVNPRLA

COc1ncc(C[n+]2csc(CCOP(=O)(O)OP(=O)(O)O)c2C)c(N)n1 [MeOThDP, 2′-methoxythiamin diphosphate]
percent of the E1p-ec fluorescence quenched [1]: 5.8% | formation of (R)-acetolactate from pyruvate [2]: not the case | percent of quenching of the fluorescence of apo-DXPS [3]: 27% | Kd ([3]; read-out: Kd from quenching of the intrinsic fluorescence of DXPS, apo-DXPS, pH 8.0, 25 °C): 6.24 ± 0.23 µM | DXPS activity, percent of that with ThDP [4]: 9–14% and 8.8% and 14% and ~ 8.8% and ~ 14% | DXPS activity ([4]; 37 °C, independent preparations): 0.26 ± 0.04 µmol min^−1 (mg of DXPS)^−1 and 0.30 ± 0.01 µmol min^−1 (mg of DXPS)^−1 | percent of E1p-h fluorescence quenched [5]: 4% | Kd ([5]; read-out: Kd from quenching of E1p-h fluorescence): 16.2 ± 4.5 µM | E1p-h specific activity ([6]; cofactor 0.2 and 0.5 mM, E1p-h alone, model reaction): 0.017 ± 0.01 µmol min^−1 (mg of E1p-h)^−1 | E1p-h specific activity, percent of that with ThDP [6]: ~49% | overall OGDHc activity, percent of that with ThDP [7]: 64% | rate of reductive acetylation of LD1-h [8]: 6.38 s⁻¹ | E1p-ec specific activity, percent of that with ThDP [9]: ~19%

Cc1ncc(C[n+]2csc(CCOP(=O)([O-])OP(=O)(O)O)c2C)c(N)n1 [ThDP, thiamin diphosphate]
percent of the E1p-ec fluorescence quenched [1]: 9.9% | formation of (R)-acetolactate from pyruvate [2]: formation of (R)-acetolactate | percent of quenching of the fluorescence of apo-DXPS [3]: 35% | DXPS activity, percent of that with ThDP [4]: 100% | Kd [5]: 7.2 ± 0.5 µM | percent of E1p-h fluorescence quenched [5]: 19% | E1p-h specific activity, percent of that with ThDP [6]: 100% | overall OGDHc activity, percent of that with ThDP [7]: 100% | rate of reductive acetylation of LD1-h [8]: 10.25 s⁻¹ | E1p-ec specific activity, percent of that with ThDP [9]: 100% | E1p-ec specific activity ([9]; E1p-ec alone, model reaction): 0.36 ± 0.01 µmol min^−1 (mg of E1p-ec)^−1

— paper PMC4852132 (Biochemistry, 2016)
